Source: PubChem BioAssay AID504542 (Sanford-Burnham Center for Chemical Genomics, 2011)
Activity calls are given as the source filed them. No rule for the calls is given here.

test system: S. cerevisiae TIM10 counterscreen strain, luminescence; assay: inhibitors of TIM10 yeast strain luminescence, dose response, counter-screen for tim10-1 inhibitor project, S. cerevisiae, uHTS hits (AID 504542)

SMILES | IC50
Cc1cccc(NC(=S)N/N=C2/CCCCc3ccccc32)c1 | 2.28 µM
O=C(/C=C\c1ccc(-c2ccccc2)o1)c1ccccc1 | 2.39 µM
CCOC(=O)c1ccc(N2C(=O)C=CC2=O)cc1 | 0.41 µM
Cc1ccc(/C(N)=N/OC(=O)c2ccc3c(c2)OCO3)cc1 | 2.42 µM
COc1ccc(C(=O)O/N=C(\N)Cc2ccc(Cl)c(Cl)c2)cc1OC | 0.8 µM
Nc1ccccc1C(=O)/C=C/c1ccc2c(c1)OCO2 | 5.88 µM
S=C(NCCCc1ccccc1)Nc1ccc(Cl)cc1 | 3.88 µM
COc1cc(N=c2ssnc2Cl)c(OC)cc1Cl | 3.15 µM
COc1ccccc1N1C(=O)CC(Sc2n[nH]c(-c3cccc(C)c3)n2)C1=O (stereo unspecified) | 3.62 µM
Cc1onc(-c2ccc3c(c2)OCO3)c1-c1ccc2[nH]ccc2c1 | 3.49 µM
Cc1ccc(/C(N)=N/OC(=O)C(C)c2ccc([N+](=O)[O-])cc2)cc1 (stereo unspecified) | 22 µM
NNc1nc(-c2ccccc2)c2cc(Br)ccc2n1 | 15.9 µM
Cc1cc(/C=C\c2ccc3cc(N(C)C)ccc3[n+]2C)c(C)n1-c1ccccc1 | 3.92 µM
Clc1ccccc1OCc1nnc(-c2ccccc2Br)o1 | 16.6 µM
CC(C)c1nnc(NC(=O)CCS(=O)(=O)c2nc(-c3cccs3)cc(C(F)(F)F)n2)s1 | 4.84 µM
Cc1cc(C)c(CSc2ncc(-c3ccc([N+](=O)[O-])cc3)[nH]2)c(C)c1 | 10.1 µM
CCOC(=O)c1c(OCC)[nH]c2c1cc(O)c1ccccc12 | 8.27 µM
O=C(c1ccc2c3n(nc2c1)-c1ccccc1CO3)N1CCCCC1 | 8.99 µM
CCCCCCC(=O)N(O)C1CC(=O)N(c2ccc(C)cc2)C1=O (stereo unspecified) | 4.38 µM
O=c1c2ccccc2nc(/C=C/c2ccc([N+](=O)[O-])o2)n1CCCO | 4.49 µM
CC(C)(C)OC(=O)N[C@@H](Cc1ccccc1)c1nnc(S(=O)(=O)Cc2cccc(F)c2)o1 | 1.19 µM
O=C(Nc1cccnc1)c1cn(-c2ccccc2)nc1-c1cccs1 | 8.73 µM
CCCOc1ccccc1NC(=O)/C=C/C(N)=O | 0.87 µM
C/C(=N\NC(=S)NCc1ccccc1)c1ccc(Cl)s1 | 11.6 µM

SMILES | IC50
CN=C(Nc1cc(Cl)ccc1Cl)SC1CC(=O)N(c2ccc(C(=O)OC)cc2)C1=O (stereo unspecified) | 6.33 µM
COc1ccc(Cl)cc1NC(=S)NCCc1ccc(F)cc1 | 11.3 µM
O=C(N/N=C/c1ccc[nH]1)c1cc(-c2ccc(Cl)cc2)nc2ccccc12 | 4.98 µM
COc1ccc(Br)cc1[C@H]1[C@@H]2C=CCC[C@@]2(C)C(=O)N1Cc1ccccc1 | 6.12 µM
O=C(Nc1cccc(N2C(=O)C=CC2=O)c1)c1cccs1 | 2.61 µM
O=C(c1cc(COc2ccc(F)cc2Cl)on1)N1CCN(c2cnccn2)CC1 | 3.98 µM
CCCCc1ccc(NC(=S)Nc2ccc(Nc3ccc(OC)cc3)cc2)cc1 | 12.4 µM
Cc1ccc(S(=O)(=O)c2nc(S(C)(=O)=O)sc2N2CCCCC2C)cc1 (stereo unspecified) | 2.35 µM
Fc1ccccc1CNC(=S)Nc1cccc(C(F)(F)F)c1 | 8.28 µM
Cc1ccc(NC(=S)/N=C(\N)Nc2nc(C)c3cc(C)ccc3n2)c(C)c1 | 12.1 µM
CCOC(=O)/C=C/C(=O)OCC(=O)Nc1ccc([N+](=O)[O-])cc1 | 3.98 µM
Cc1ccc(F)c([C@H]2[C@@H]3C=CCC[C@@]3(C)C(=O)N2Cc2ccccc2)c1 | 7.6 µM
Cc1ccc(NC(=S)Nc2ccc(Cl)c(Cl)c2)c(OC(F)F)c1 | 9.07 µM
O=C1C2C3C=CC(CO)(O3)C2C(=O)N1c1ccccc1-c1ccccc1 (stereo unspecified) | 1.27 µM
CC(C)C(c1nnnn1C1CCCC1)N1CCCc2ccccc21 (stereo unspecified) | 5.94 µM
COc1cc(/C=C/c2ccc3cccc(O)c3n2)c(Br)cc1O | 9.2 µM
COc1ccc(/C=C/C(=O)c2ccccc2)cc1Cn1nnc2ccccc21 | 3.86 µM
COc1ccc(Cl)cc1NC(=O)CN(C)C(=O)C12CC3CC(CC(Cl)(C3)C1)C2 | 12 µM
N/C(Cc1ccc(Cl)cc1Cl)=N\OC(=O)Cc1ccc(Cl)cc1 | 0.74 µM
Cn1c(NCCCO)nc2c(c1=O)C1(CCCCC1)Cc1ccccc1-2 | 6.86 µM
COc1cc(C(=O)Nc2ccc(Cl)c(C(F)(F)F)c2)cc(OC)c1OC | 27.1 µM
CC(C)(C)c1ccc(CN2N=Nc3ccccc3S2(=O)=O)cc1 | 2.99 µM
COc1ccc(C(=O)O/N=C(\N)c2ccc(Br)cc2)cc1 | 7.29 µM
COc1ccc2cc3cc(C(=O)NCCN4CCc5ccccc5C4)oc3nc2c1 | < 0.2 µM

SMILES | IC50
Clc1ccc(CNc2nc(CN3CCOCC3)nc3scc(-c4ccccc4)c23)cc1 | 4.96 µM
Cn1c(/C=C/c2ccc([N+](=O)[O-])o2)nc2ccccc2c1=O | 4.94 µM
COc1ccc(-n2cc(-c3ccccc3)c3c(=S)nc[nH]c32)cc1 | > 100 µM (inactive)
CC(C)Nc1nnc(Sc2ccc(Cl)cc2[N+](=O)[O-])s1 | 2.28 µM
O=C(NNC(=S)Nc1cccc(C(F)(F)F)c1)c1ccc(Cl)cc1Cl | 8.13 µM
c1ccc(Nc2cccc(Nc3ccccc3)n2)cc1 | 5.97 µM
Cc1ccc(NC(=O)c2ccc(Cl)c(N3C(=O)C=CC3=O)c2)cc1 | 4.36 µM
Cc1ccc(OCC(=O)O/N=C(\N)Cc2ccc(Cl)cc2)cc1 | 56.7 µM
C[C@@H]1CC=C[C@H]2[C@H]1C(=O)N(Cc1ccccc1)[C@H]2c1ccc(-c2ccoc2)cc1F | 7.07 µM
O=C(NNC(=S)Nc1ccc(Cl)cc1)c1ccccc1OC(F)F | 4.44 µM
CC(C)C(=O)N1CCN(c2ccccc2NC(=O)c2ccc([N+](=O)[O-])o2)CC1 | 1.82 µM
CC1=C/C(=N\OS(=O)(=O)c2ccccc2)C=CC1=O | 0.26 µM
N/C(=N\OC(=O)CCCc1ccccc1)c1ccccc1Cl | 7.22 µM
COc1ccc(/C(N)=N/OC(=O)c2ccc3c(c2)OCO3)cc1 | 4.94 µM
COc1ccc2sc(N(CCCN(C)C)C(=O)c3ccc(S(=O)(=O)N4CCCc5ccccc54)cc3)nc2c1 | 8.76 µM
N/C(=N\OC(=O)c1ccc(Cl)cc1)c1ccc(Cl)cc1 | > 100 µM (inactive)
Cc1cccc(NC(=O)c2ccc([N+](=O)[O-])s2)n1 | 1.39 µM
CCCCNC(=S)Nc1ccc(C(F)(F)F)cc1 | 9.88 µM
COc1ccc(Br)cc1[C@H]1[C@H]2C=CC[C@@H](C)[C@@H]2C(=O)N1Cc1ccccc1 | 6.86 µM
CN(C)CCCN(C(=O)c1cc2cc([N+](=O)[O-])ccc2s1)c1nc2cc3c(cc2s1)OCCO3 | 10.8 µM
CN(CCCC(=O)O)c1ccc(N=Nc2ccc([N+](=O)[O-])cc2)cc1 | 14.5 µM
Cc1cc([N+](=O)[O-])ccc1-c1ccc(C2Nc3ccccc3C(=O)N2O)o1 (stereo unspecified) | 9.76 µM
O=C(NC(=S)NNC(=O)c1ccccc1[N+](=O)[O-])c1ccc(Br)cc1 | 6.64 µM
CCSc1nc2ccccc2n1C(=O)/C=C\c1ccc(OC)c(OC)c1 | 7.72 µM

SMILES | IC50
NC(=NCCCCCCN=C(N)/N=C(\N)Nc1ccc(Cl)cc1)/N=C(\N)Nc1ccc(Cl)cc1 | > 100 µM (inactive)
Cc1ccccc1OCC(=O)Nc1ccc(S(=O)(=O)N2CCCC2)cc1 | 5.36 µM
CCCCNC(=S)N=Nc1c(O)[nH]c2ccccc12 | 3.19 µM
O=c1c2ccccc2[se]n1-c1ccccc1 | 0.58 µM
N/C(Cc1ccc(Cl)cc1)=N\OC(=O)c1ccc2ccccc2c1 | 0.26 µM
Cc1ccc(F)c([C@H]2C3C=CCC(c4ccccc4)C3C(=O)N2Cc2ccccc2)c1 (stereo partly specified) | 6.99 µM
N=C(N)c1ccc(/C=C/c2ccc(C(=N)N)cc2O)cc1 | 4.36 µM
COc1ccc(-c2cc(C3CC3)nc3sc(C#N)c(N)c23)cc1 | 4.46 µM
CCOC(=O)c1cc(-c2cccs2)nc2c1c(C)nn2-c1ccccn1 | 8.92 µM
CCOc1ccc(-n2cc(-c3ccccc3)c3c(=O)[nH]cnc32)cc1 | 5.89 µM
O=C(NC(=S)Nc1ccccc1N1CCCC1)c1ccc([N+](=O)[O-])cc1 | 8.53 µM
CCN(CC)C1CC(=O)N(c2cccc(Cl)c2)C1=O (stereo unspecified) | 1.74 µM
c1ccc(Nc2cccc(Nc3ccccc3)c2)cc1 | 5.02 µM
N/C(=N\OC(=O)c1ccc(F)cc1)c1ccc(Br)cc1 | > 100 µM (inactive)
Cn1c(Cl)cnc1C1CC(=O)c2cc(Cl)ccc2O1 (stereo unspecified) | 1.98 µM
CCOC(=O)c1ccc(N=c2ssnc2Cl)cc1 | 1.87 µM
CC[C@@H]1CC=C[C@H]2[C@H]1C(=O)N(Cc1ccccc1)[C@H]2c1ccoc1 | 2.5 µM
CCCn1c(CC)nc([N+](=O)[O-])c1S(=O)(=O)c1ccccc1 | 2.72 µM
Nc1nc(N)c(C=Nc2ccc(Br)cc2)c(Nc2ccc(Br)cc2)n1 | 10.8 µM
COc1ccc(-c2[nH]ncc2N=Nc2ccccc2)cc1 | 5.88 µM
CC(=O)N1CCN(c2cc(N3CCc4ccccc4C3)c(F)cc2[N+](=O)[O-])CC1 | 19.6 µM
COC(=O)c1c(N2C(=O)CC(Sc3ccccc3C(=O)O)C2=O)sc2c1CCCC2 (stereo unspecified) | 1.49 µM
Nc1c(C(=O)Nc2ccccc2)c2nc3ccccc3nc2n1CCCN1CCOCC1 | 9.74 µM
CNC(=O)c1nnsc1S(=O)(=O)c1ccc(Cl)cc1 | 12.9 µM

SMILES | IC50
COc1ccc(-c2nncnn2)cc1 | 3.43 µM
N/C(=N\OC(=O)CCC1CCCC1)c1ccccc1 | 16.8 µM
COc1cc(OC)c(C(=O)O/N=C(\N)c2ccc(C)cc2)cc1OC | 5.99 µM
O=c1oc2ccccc2c(O)c1/C=C1\C=Nc2ccccc21 | 6.1 µM
COc1ccc(C(=O)O/N=C(\N)c2ccccc2Cl)cc1OC | 9.27 µM
COc1ccc(-c2sc3cc4c(cc3c2C#CC2(N)CCCCC2)OCO4)cc1 | 8.21 µM
Nc1nc(-c2ccc(Br)cc2)cs1 | 10.4 µM
N/C(=N\OC(=O)CCC1CCCC1)c1cccc([N+](=O)[O-])c1 | 8.32 µM
Fc1c(F)c(C(F)(F)F)c(F)c(F)c1N/N=C\c1cccs1 | 4 µM
O=C1CS(=O)(=O)N(Cc2cccc(F)c2)c2ccc(Br)cc21 | 4.69 µM
N#C/C(=N/Nc1ccc(OC(F)(F)F)cc1)C(N)=S | 1.22 µM
Cc1ccccc1/C=C/C(=O)c1ccc([N+](=O)[O-])o1 | 0.66 µM
O=C(/C=C/c1ccc2c(c1)OCCCO2)c1ccccc1O | 4.68 µM
CC1=C/C(=N\OS(=O)(=O)c2ccccc2)C(C)=CC1=O | < 0.2 µM
O=C(O)/C=C/C(=O)c1ccc2c(c1)CCc1ccccc1-2 | 3.32 µM
CCCOc1ccc(CN(CCC#N)C(=S)NC(=O)c2ccccc2)cc1 | 10.2 µM
CCOC(=O)c1ccc(NC(=O)CC2OCCN(CC)C2=O)cc1 (stereo unspecified) | 1.28 µM
CC(C)CN(CC(C)C)C(=S)Nc1ccc(Cl)cc1 | 11 µM
COc1ccc(C(=O)Nc2ccc(-n3nncc3C(C)(C)C)cc2)cc1 | 6.59 µM
C=CC(=O)Oc1ccc(N2Cc3ccccc3C2=O)cc1 | 2.89 µM
